Experimental data published in PubChem BioAssay (NCI).
Several values for one entry are separate records, joined by “and”; a condition that tells them apart may be missing. Equal entries are not always repeated.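 Cultured in 96-well plates, cells were exposed to test compound for 48 hours across five concentrations. The concentration for 50% growth inhibition is given as GI50. The concentration for full growth arrest is given as TGI.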

What was measured:
Assay in all cases: inhibition of tumour cell growth, NCI panel, 48 h
786-0 renal = test system: 786-0 renal
A498 renal = test system: A498 renal
A549 NSCLC = test system: A549 NSCLC
CAKI-1 renal = test system: CAKI-1 renal
HCC-2998 colon = test system: HCC-2998 colon
HOP-62 NSCLC = test system: HOP-62 NSCLC
MALME-3M melanoma = test system: MALME-3M melanoma
NCI-H460 lung = test system: NCI-H460 lung
RPMI-8226 leukemia = test system: RPMI-8226 leukemia
SW-620 colon = test system: SW-620 colon

| Structure (SMILES) | GI50 (786-0 renal) | TGI (786-0 renal) | GI50 (A498 renal) | TGI (A498 renal) | GI50 (A549 NSCLC) | TGI (A549 NSCLC) | GI50 (CAKI-1 renal) | TGI (CAKI-1 renal) | GI50 (HCC-2998 colon) | TGI (HCC-2998 colon) | GI50 (HOP-62 NSCLC) | TGI (HOP-62 NSCLC) | GI50 (MALME-3M melanoma) | TGI (MALME-3M melanoma) | GI50 (NCI-H460 lung) | TGI (NCI-H460 lung) | GI50 (RPMI-8226 leukemia) | TGI (RPMI-8226 leukemia) | GI50 (SW-620 colon) | TGI (SW-620 colon) |
| --- | --- | --- | --- | --- | --- | --- | --- | --- | --- | --- | --- | --- | --- | --- | --- | --- | --- | --- | --- | --- |
| Oc1ccc(-c2[nH]c3ccccc3c2-c2nc3ccccc3o2)cc1 | 4.4 µM | 15.2 µM | 2.18 µM | 14.9 µM | 3.15 µM | 11.4 µM | 2.62 µM | 14.2 µM | 2.66 µM | 7 µM | 5.01 µM | 18.2 µM | 7.47 µM | 28.3 µM | 3.24 µM | 11.5 µM | 14.3 µM | 52.3 µM | 3.04 µM | 13.4 µM |
| COc1cc2c(cc1OC)C(SC)C(=O)N(Cc1cccc(OC)c1OC)CC2 (stereo unspecified) | – | > 100 µM | – | > 54.9 µM | – | > 82.7 µM | – | > 88.5 µM | – | 29.1 µM | – | > 45.8 µM | – | > 66.6 µM | – | 28.8 µM | – | 47.5 µM | – | > 100 µM |
| Cc1ccc(NC2=CC(=O)C(=O)c3ccccc32)c(C)c1 | 8.44 µM | 20.8 µM | 4.69 µM | 17.8 µM | 1.97 µM | 4.34 µM | 2 µM | 7.95 µM | 2.54 µM | 7.91 µM | 3.24 µM | 12.5 µM | 1.76 µM | 3.78 µM | 2.57 µM | 7.68 µM | 4.84 µM | 53.7 µM | 3.26 µM | 12.8 µM |
| O=S(=O)(Cc1ccccc1)SCc1ccccc1 | – | 51.5 µM | – | 73.6 µM | – | > 100 µM | – | > 86.2 µM | – | 55.2 µM | – | > 100 µM | – | 73.6 µM | – | > 83.8 µM | – | 61.6 µM | – | 15.5 µM |
| Nc1nc(-c2ccccc2)cc(-c2cc(Cl)ccc2O)n1 | – | > 100 µM | – | > 100 µM | – | > 100 µM | – | > 100 µM | – | > 100 µM | – | 85.5 µM | – | > 100 µM | – | > 100 µM | – | > 100 µM | – | > 100 µM |
| CCOC(=O)COc1cccc2occc(=O)c12 | – | > 100 µM | – | > 100 µM | – | > 100 µM | – | > 100 µM | – | > 100 µM | – | > 100 µM | – | > 100 µM | – | > 100 µM | – | > 100 µM | – | > 100 µM |
| Nc1c(-c2nc3ccccc3s2)[n+]([O-])c2ccccc2[n+]1[O-] | – | > 100 µM | – | > 100 µM | – | > 100 µM | – | 81.8 µM | – | > 100 µM | – | 78.5 µM | – | 91.7 µM | – | > 100 µM | – | 89.5 µM | – | > 100 µM |
| O=C(O)Cn1ccc(=O)c2c([N+](=O)[O-])cccc21 | – | > 100 µM | – | > 100 µM | – | > 100 µM | – | > 100 µM | – | > 100 µM | – | > 100 µM | – | > 100 µM | – | > 100 µM | – | – | – | > 100 µM |
| Cc1ccc(O)cc1Nc1ccnc2cc(-c3ccccn3)ccc12 | 2.98 µM | 6.66 µM | 1.83 µM | 5.04 µM | 3.8 µM | 8.39 µM | 1.05 µM | 4.36 µM | 3.89 µM | 7.51 µM | 3.48 µM | 8.59 µM | 3.59 µM | 8.32 µM | 3.65 µM | 7.4 µM | 4.25 µM | 9.88 µM | 4.02 µM | 7.65 µM |
| CCCCOCCOCCOC1=C(Cl)C(=O)c2c(O)ccc(O)c2C1=O | – | 3.4 µM | – | 4.95 µM | – | 4.14 µM | – | 0.388 µM | – | 4.79 µM | – | 2.53 µM | – | – | – | 4.4 µM | – | 1.32 µM | – | 1.75 µM |
| C1CCN2CC3CONC3C2C1 (stereo unspecified) | – | > 100 µM | – | > 100 µM | – | > 100 µM | – | > 100 µM | – | > 100 µM | – | > 100 µM | – | > 100 µM | – | > 100 µM | – | > 100 µM | – | > 100 µM |
| N=C(N)c1ccc(OCCCCCOc2ccc(C(=N)N)cc2)cc1 | 12 µM | > 50 µM and 27.1 µM and 31.8 µM | 7.24 µM | > 50 µM | 0.83 µM | > 50 µM and 37.1 µM and > 100 µM | 10.3 µM | > 100 µM | 7.15 µM | 40.4 µM and 28.3 µM | 3.38 µM | 10.6 µM and 32.8 µM and 30.3 µM | 1.81 µM | 8.4 µM and 35.3 µM | 1.68 µM | 9 µM and 17.4 µM and 18.3 µM | 3.81 µM and 22.6 µM and 6.87 µM | > 100 µM | 5.17 µM and 8.95 µM and 18.1 µM | > 50 µM and 57.7 µM and 86.9 µM |
| C/C(CC(=O)Nc1cccc(Cl)c1C)=N\N=C(N)N | – | > 100 µM | – | > 100 µM | – | > 100 µM | – | > 100 µM | – | > 100 µM | – | > 100 µM | – | > 100 µM | – | > 100 µM | – | > 100 µM | – | – |
| COC(=O)c1cc2ccccc2c2nc3ccccc3c(Cl)c12 | – | > 100 µM | – | > 100 µM | – | > 100 µM | – | > 100 µM | – | > 100 µM | – | > 100 µM | – | > 100 µM | – | – | – | > 100 µM | – | > 100 µM |
| Cc1ccc(NC(=O)c2ccc(NC3=C(Cl)C(=O)N(Cc4ccccc4)C3=O)cc2)cc1Cl | 3.35 µM | 15.9 µM | 0.854 µM | 26.9 µM | 12.9 µM | 25.6 µM | 1.68 µM | 3.81 µM | 2.36 µM | 14.2 µM | 12.2 µM | 31.9 µM | – | – | 10.3 µM | 27 µM | 3.58 µM | 16.5 µM | 1.99 µM | 11.8 µM |
| CC1(C)CC(O)CC(C)(C)N1.CC1(C)CC(O)CC(C)(C)N1.CC1(C)CC(O)CC(C)(C)N1.CC1(C)CC(O)CC(C)(C)N1.Cl.[Ti] | > 100 µM | > 100 µM | > 100 µM | > 100 µM | – | – | > 100 µM | > 100 µM | > 100 µM | > 100 µM | > 100 µM | > 100 µM | – | – | > 100 µM | > 100 µM | > 100 µM | > 100 µM | > 100 µM | > 100 µM |
| COc1cc(OC)c(/C=C/C(=O)c2c(N)cc(OC)cc2OC)c(OC)c1 | 1.49 µM | > 75 µM | 0.463 µM | – | 0.733 µM | > 100 µM | 0.38 µM | > 100 µM | 1.25 µM | > 54.1 µM | 0.724 µM | > 100 µM | – | – | 0.347 µM | > 51.2 µM | 0.815 µM | > 100 µM | 0.326 µM | > 100 µM |
| O=C(Nc1ccc(Cl)c(Cl)c1)C1C(=O)N(c2ccc(Cl)c(Cl)c2)C(=O)/C1=N\O (stereo unspecified) | – | > 100 µM | – | > 100 µM | – | > 100 µM | – | > 100 µM | – | > 100 µM | – | > 100 µM | – | > 100 µM | – | – | – | > 100 µM | – | > 100 µM |
